Experimental data reported in article PMC4457633 (Bioorganic & medicinal chemistry letters, 2015).
Like-named read-outs stand apart in the source and are kept apart here.

What was measured:
VMAT-2 [1] = target: T1, VMAT-2 (Rattus norvegicus, UniProt Q01827); experiment: [3H]DA uptake at VMAT-2, isolated rat synaptic vesicle preparations; type: biochemical; conditions: for fold more potent inhibiting [3H]DA uptake at VMAT-2 compared to 16: compared to N-2,3-dihydroxypropyl derivative 16
[2] = qualitative; ref [15]; cited from earlier work
VMAT-2 [3] = target: T1, VMAT-2; conditions: read-out: [3H]DTBZ Binding Ki; mean ± SEM; rat brain synaptic vesicles; ref [15]; cited from earlier work
VMAT-2 [4] = target: T1, VMAT-2; conditions: read-out: [3H]DA uptake Ki; mean ± SEM; rat synaptic vesicles; ref [15]; cited from earlier work

T1 sequence (Q01827 whole entry): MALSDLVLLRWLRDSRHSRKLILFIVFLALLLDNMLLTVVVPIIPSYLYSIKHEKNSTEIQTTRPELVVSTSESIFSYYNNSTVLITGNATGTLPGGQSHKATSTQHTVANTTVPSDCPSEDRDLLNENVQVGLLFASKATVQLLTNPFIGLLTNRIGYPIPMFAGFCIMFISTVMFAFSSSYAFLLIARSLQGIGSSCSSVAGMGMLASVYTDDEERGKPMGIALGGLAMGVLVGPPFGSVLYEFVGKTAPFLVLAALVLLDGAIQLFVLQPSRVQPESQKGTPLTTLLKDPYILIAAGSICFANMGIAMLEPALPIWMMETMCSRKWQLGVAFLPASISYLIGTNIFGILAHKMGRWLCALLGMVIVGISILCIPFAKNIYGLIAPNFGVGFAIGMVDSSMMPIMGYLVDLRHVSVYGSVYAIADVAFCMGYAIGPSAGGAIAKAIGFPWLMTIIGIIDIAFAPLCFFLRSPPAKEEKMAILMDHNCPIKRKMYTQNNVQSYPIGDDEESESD

| SMILES | fold more potent inhibiting [3H]DA uptake at VMAT-2 compared to 16 (VMAT-2 [1]) | water solubility [2] | further results |
| --- | --- | --- | --- |
| c1ccc2c(CC[C@H]3CCC[C@@H](CCc4ccnc5ccccc45)N3)ccnc2c1 [Compound 14] | about 6 fold |  |  |
| c1ccc2nc(CC[C@H]3CCC[C@@H](CCc4ccc5ccccc5n4)N3)ccc2c1 [Compound 13] | about 6 fold |  |  |
| c1cnc2ccc(CC[C@H]3CCC[C@@H](CCc4ccc5ncccc5c4)N3)cc2c1 [Compound 15] | about 6 fold |  |  |
| c1ccc(CC[C@H]2CCC[C@@H](CCc3ccccc3)N2)cc1 [Norlobelane] |  | less than optimal water-solubility | Ki (VMAT-2 [3]): 2310 ± 190 nM; Ki (VMAT-2 [4]): 43 ± 2 nM |
| CN1[C@@H](CCc2ccnc3ccccc23)CCC[C@H]1CCc1ccnc2ccccc12 [Quinlobelane] |  | improved water solubility over lobelane and norlobelane |  |
| CN1[C@@H](CCc2ccccc2)CCC[C@H]1CCc1ccccc1 [Lobelane] |  | less than optimal water-solubility |  |
| OC[C@H](O)CN1[C@@H](CCc2ccc3ccccc3n2)CCC[C@H]1CCc1ccc2ccccc2n1 [Compound 16] |  |  | fold lower inhibitory potency than GZ-793A in vesicular [3H]DA uptake assay (VMAT-2 [1]; compared to GZ-793A (Ki = […] nM)): 8 fold |
